Columns and labels:
guinea-pig pups = assay: Separation-induced vocalisation in guinea-pig pups; format: in vivo; details: for attenuation of separation-induced vocalisations compared with baseline: 30 minutes before isolation
Description: ASSAY 2: Separation-induced Vocalisation
Male and female guinea-pigs pups are housed in family groups with their mothers and littermates throughout the study. Experiments are commenced after weaning when the pups are at least 2 weeks old. Before entering an experiment, the pups may be screened to ensure that a vigorous vocalisation response is reproducibly elicited following maternal separation. The pups are placed individually in an observation cage (approximately 55 cm×39 cm×19 cm) in a room physically isolated from the home cage for approximately 15 minutes and the duration and/or number of vocalisation during this baseline period is recorded. […] The duration and/or number of vocalisation on drug treatment days may be expressed as a percentage of the pre-treatment baseline value for each animal or compared with values obtained in vehicle-treated animals. The same subjects may be retested once weekly for up to 6 weeks.

gerbils = assay: Gerbil foot-tapping (CNS penetration) assay; format: in vivo, Mongolian gerbil (Meriones unguiculatus); details: for gerbil foot-tapping (5 mins.) ID50 / gerbil foot-tapping (24 hrs.) ID50: i.v.; for gerbil foot-tapping (5 mins.) ID50: 5 mins. before central NK-1 agonist challenge; for gerbil foot-tapping (24 hrs.) ID50: 24 hrs. before central NK-1 agonist challenge
Description: ASSAY 3: Gerbil Foot-tapping (CNS Penetration) Assay
CNS-penetrant NK-1 receptor antagonists for use in the present invention can be identified by their ability to inhibit foot tapping in gerbils induced by anxiogenic agents (such as pentagastrin) or central infusion of NK-1 receptor agonists such as GR73632, or caused by aversive stimulation such as foot shock or single housing, based on the method of Rupniak & Williams, Eur. J. Pharmacol., 1994, 265, 179.
Male or female Mongolian gerbils (35-70 g) are anaesthetised by inhalation of an isoflurane/oxygen mixture to permit exposure of the jugular vein in order to permit administration of test compounds or vehicle in an injection volume of approximately 5 ml/kg i.v. Alternatively, test compounds may be administered orally or by subcutaneous or intraperitoneal routes. A skin incision is then made in the midline of the scalp to expose the skull.

ferrets = assay: Ferret emesis (cisplatin-induced); format: in vivo; details: p.o., 60 minutes before cisplatin 10 mg/kg i.v.
Description: ASSAY 4: Ferret Emesis […]

Which results are given for `CN(C)CCCN1c2ccccc2CCc2ccccc21` [imipramine, reference compound]?
guinea-pig vocalisation ID50 (guinea-pig pups; s.c.): 5.4 mg/kg s.c.; foot-tapping ID50 (gerbils; s.c., foot-tapping induced by substance P): 3.8 mg/kg s.c.

What does the source list for `CNCCC(Oc1ccc(C(F)(F)F)cc1)c1ccccc1` (stereo not drawn) [fluoxetine, reference compound]?
attenuation of separation-induced vocalisations compared with baseline (guinea-pig pups; 2 mg/kg i.p. alone): approximately 25%; guinea-pig vocalisation ID50 (guinea-pig pups; i.p.): 2.7 mg/kg i.p.

Which results are given for `C[C@@H](O[C@H]1OCCN(Cc2n[nH]c(=O)[nH]2)[C@H]1c1ccc(F)cc1)c1cc(C(F)(F)F)cc(C(F)(F)F)c1` [2-(R)-(1-(R)-(3,5-bis(trifluoromethyl)phenyl)ethoxy)-3-(S)-(4-fluorophenyl)-4-(3-(5-oxo-1H,4H-1,2,4-triazolo)methyl)morpholine]?
guinea-pig vocalisation ID50 (guinea-pig pups; p.o., 4 hrs. pretreatment): ID50 = 0.73 mg/kg p.o.; ID90 in the ferret emesis assay (ferrets): < 3 mg/kg p.o.; gerbil foot-tapping (5 mins.) ID50 (gerbils): ID50 = 0.36 mg/kg i.v.; gerbil foot-tapping (24 hrs.) ID50 (gerbils): ID50 = 0.33 mg/kg i.v.

`O=C1CC2(CCCC2)CC(=O)N1CCCCN1CCN(c2ncccn2)CC1` [buspirone, reference compound] was tested. Which “attenuation of separation-induced vocalisations compared with baseline” value (guinea-pig pups; 0.25 mg/kg s.c. alone) did it give?
Its value is “approximately 25%”.

What about the “guinea-pig vocalisation ID50” value (guinea-pig pups; s.c.) of the same compound?
The value was 0.5 mg/kg s.c.

`CN1C(=O)CN=C(c2ccccc2)c2cc(Cl)ccc21` [diazepam, reference compound] was tested. Which “guinea-pig vocalisation ID50” value (guinea-pig pups; s.c.) did it give?
The value was 0.7 mg/kg s.c.

Which “attenuation of separation-induced vocalisations compared with baseline” value (guinea-pig pups; 0.25 mg/kg s.c. alone) does the source give for `C[C@@H](O[C@H]1OCCN(Cc2nn[nH]c2CN(C)C)[C@H]1c1ccccc1)c1cc(C(F)(F)F)cc(C(F)(F)F)c1` [Test Compound A, 2-(R)-(1-(R)-(3,5-bis(trifluoromethyl)phenyl)ethoxy)-4-(5-(dimethylamino)methyl-1,2,3-triazol-4-yl)methyl-3-(S)-phenylmorpholine] here?
The value was “approximately 25%”.

What about the “guinea-pig vocalisation ID50” value (guinea-pig pups; s.c.) of the same compound?
The value was “ID50 = 0.5 mg/kg s.c”.

What about the “gerbil foot-tapping (5 mins.) ID50” value (gerbils) of the same compound?
The value was “ID50 = 0.12 mg/kg i.v”.

And the “gerbil foot-tapping (24 hrs.) ID50” value (gerbils)?
Its value is “ID50 = 0.17 mg/kg i.v”.

With `C[C@@H](O[C@@H]1OCCN(Cc2nn[nH]c2CN(C)C)[C@@H]1c1ccccc1)c1cc(C(F)(F)F)cc(C(F)(F)F)c1` [Test Compound B, 2-(S)-(1-(R)-(3,5-bis(trifluoromethyl)phenyl)ethoxy)-4-(5-(dimethylamino)methyl-1,2,3-triazol-4-yl)methyl-3-(R)-phenylmorpholine] as the compound, how does the “attenuation of separation-induced vocalisations when administered alone” value (guinea-pig pups; 0.25 mg/kg s.c. alone) read?
The value was “failure”.

And the “potentiation of the inhibitory effect of buspirone on separation-induced vocalisations” value (guinea-pig pups; 0.25 mg/kg s.c. with buspirone 0.25 mg/kg s.c.)?
The value was “failure”.

What about the “potentiation of the inhibitory effect of fluoxetine on separation-induced vocalisations” value (guinea-pig pups; 0.25 mg/kg s.c. with fluoxetine 2 mg/kg i.p.) of the same compound?
The value was “failure”.

From US6649614B2, “Use of a NK-1 receptor antagonist and an antidepressant and/or an anti-anxiety agent for treatment of depression or anxiety” (Merck Sharp & Dohme Ltd., priority 1996, dated 2003)
